Assay results reported in patent publication US4448962A, “Substituted quinoline carboxylic acid derivatives” (Kyorin Seiyaku Kabushiki Kaisha, priority 1978, dated 1984).
≈ marks a conversion by molar mass, not a printed value. Like-named read-outs stand apart in the source and are kept apart here.

Assays:
Experiment in all cases: Antibacterial spectrum (Minimum Inhibitory Concentration)
Assay type in all cases: cell-based
Ps. aeruginosa IFO 12689 = settings: Pseudomonas aeruginosa
From the text: (§1) The antibacterial tests were done according to the method authorized by the Chemotherapeutic Society of Japan.

[1] = tested on: Staphylococcus aureus 209P; settings: read-out: Minimum Inhibitory Concentration
From the text: as §1

Sta. aureus ATCC 14775 = settings: Staphylococcus aureus
From the text: as §1

[2] = tested on: Escherichia coli NIHJ JC-2
From the text: as §1

[3] = tested on: Pseudomonas aeruginosa V-1
From the text: as §1

[4] = tested on: Bacillus subtilis PCI 219
From the text: as §1

[5] = tested on: Klebsiella pneumoniae IFO 3512
From the text: as §1

Pr. vulgaris XK Denken = settings: Proteus vulgaris, read-out: Minimum Inhibitory Concentration
From the text: as §1

[6] = tested on: Proteus vulgaris IFO 3167
From the text: as §1

E. coli ATCC 10536 = settings: Escherichia coli
From the text: as §1

[7] = IFO12689, Ps. aeruginosa IFO 12689, Gram -, read-out: Minimum Inhibitory Concentration
[8] = Staphylococcus aureus 209P, Gram +
[9] = ATCC14775, Sta. aureus ATCC 14775, Gram +, read-out: Minimum Inhibitory Concentration
[10] = NIHJJC2, Escherichia coli NIHJ JC-2, Gram -, read-out: Minimum Inhibitory Concentration
[11] = V1, Pseudomonas aeruginosa V-1, Gram -, read-out: Minimum Inhibitory Concentration
[12] = PCI219, Bacillus subtilis PCI 219, Gram +, read-out: Minimum Inhibitory Concentration
[13] = IFO3512, Klebsiella pneumoniae IFO 3512, Gram -, read-out: Minimum Inhibitory Concentration
[14] = IFO3167, Proteus vulgaris IFO 3167, Gram -, read-out: Minimum Inhibitory Concentration
[15] = ATCC10536, E. coli ATCC 10536, Gram -, read-out: Minimum Inhibitory Concentration
[16] = IFO12689, read-out: Minimum Inhibitory Concentration
[17] = Escherichia coli, NIHJJC2, read-out: Minimum Inhibitory Concentration
[18] = Klebsiella pneumoniae, IFO3512, read-out: Minimum Inhibitory Concentration

Structure (SMILES) | MIC (Ps. aeruginosa IFO 12689; [7]) [µg/mL] | MIC [1, 8] [µg/mL] | MIC (Sta. aureus ATCC 14775; [9]) [µg/mL] | MIC [2, 10] [µg/mL] | MIC [3, 11] [µg/mL] | MIC [4, 12] [µg/mL] | MIC [5, 13] [µg/mL] | MIC (Pr. vulgaris XK Denken; Pr. vulgaris XK Denken, Gram -) [µg/mL] | MIC [6, 14] [µg/mL] | MIC (E. coli ATCC 10536; [15]) [µg/mL] | MIC (Ps. aeruginosa IFO 12689; [16]) [µg/mL] | MIC ([1]; Staphylococcus aureus, 209P) [µg/mL] | MIC (Sta. aureus ATCC 14775; ATCC14775, read-out: Minimum Inhibitory Concentration) [µg/mL] | MIC [2, 17] [µg/mL] | MIC ([3]; Pseudomonas aeruginosa, V1, read-out: Minimum Inhibitory Concentration) [µg/mL] | MIC ([4]; Bacillus subtilis, PCI219, read-out: Minimum Inhibitory Concentration) [µg/mL] | MIC [5, 18] [µg/mL] | MIC (Pr. vulgaris XK Denken) [µg/mL] | MIC ([6]; Proteus vulgaris, IFO3167, read-out: Minimum Inhibitory Concentration) [µg/mL] | MIC (E. coli ATCC 10536; ATCC10536, read-out: Minimum Inhibitory Concentration) [µg/mL]
CCn1cc(C(=O)O)c(=O)c2cc(F)c(N3CCN(N=O)CC3)cc21 [Example 24, 1-ethyl-6-fluoro-7-(4-nitroso-1-piperazinyl)-4-oxo-1,4-dihydroquinoline-3-carboxylic acid] | 6.25 (≈ 17.9 µM) | 0.39 (≈ 1.12 µM) | 0.78 (≈ 2.24 µM) | 0.39 (≈ 1.12 µM) | 3.13 (≈ 8.99 µM) | 0.39 (≈ 1.12 µM) | 0.39 (≈ 1.12 µM) | 0.39 (≈ 1.12 µM) | 0.39 (≈ 1.12 µM) | 0.39 (≈ 1.12 µM) | – | – | – | – | – | – | – | – | – | –
Cl.O=C(O)c1cn(CCO)c2cc(N3CCNCC3)c(F)cc2c1=O [Example 25, 1-(2-hydroxyethyl)-6-fluoro-7-(1-piperazinyl)-4-oxo-1,4-dihydroquinoline-3-carboxylic acid hydrochloride] | – | – | – | – | – | – | – | – | – | – | > 25 | 1.56 | > 25 | 0.39 | 3.13 | 1.56 | 0.05 | 3.13 | 0.2 | 0.2
O=C(O)c1cn(Cc2ccccc2)c2cc(N3CCNCC3)c(F)cc2c1=O [Example 20, 1-benzyl-6-fluoro-1,4-dihydro-4-oxo-7-(1-piperazinyl)-quinoline-3-carboxylic acid] | – | 1.56 (≈ 4.09 µM) | 6.25 (≈ 16.4 µM) | 0.78 (≈ 2.05 µM) | 1.56 (≈ 4.09 µM) | 0.78 (≈ 2.05 µM) | 0.39 (≈ 1.02 µM) | 0.78 (≈ 2.05 µM) | 0.39 (≈ 1.02 µM) | 0.39 (≈ 1.02 µM) | 6.25 (≈ 16.4 µM) | – | – | – | – | – | – | – | – | –
CCn1cc(C(=O)O)c(=O)c2ccc(N3CCNCC3)c(F)c21 [Example 16, 1-ethyl-7-(1-piperazinyl)-8-fluoro-4-oxo-1,4-dihydroquinoline-3-carboxylicacid hydrochloric] | 12.5 (≈ 39.1 µM) | 12.5 (≈ 39.1 µM) | 25 (≈ 78.3 µM) | 0.78 (≈ 2.44 µM) | 1.56 (≈ 4.89 µM) | 3.13 (≈ 9.8 µM) | 0.2 (≈ 0.626 µM) | 1.56 (≈ 4.89 µM) | 0.78 (≈ 2.44 µM) | 0.78 (≈ 2.44 µM) | – | – | – | – | – | – | – | – | – | –
CCn1cc(C(=O)O)c(=O)c2cc(Cl)c(N3CCN(C4OC(=O)c5ccccc54)CC3)cc21 (stereo not drawn) [Example 15, 1-ethyl-6-chloro-7-(4-phthalidyl-1-piperazinyl)-4-oxo-1,4-dihydroquinoline-3-carboxylic acid] | 12.5 (≈ 26.7 µM) | 1.56 (≈ 3.33 µM) | – | 0.2 (≈ 0.427 µM) | 6.25 (≈ 13.4 µM) | 0.78 (≈ 1.67 µM) | 0.78 (≈ 1.67 µM) | 0.39 (≈ 0.833 µM) | 0.39 (≈ 0.833 µM) | 0.2 (≈ 0.427 µM) | – | – | – | – | – | – | – | – | – | –
CCn1cc(C(=O)O)c(=O)c2cc(Cl)c(N3CCN(C(=O)C(F)(F)F)CC3)cc21 [Example 12, 1-ethyl-6-chloro-7-(4-trifluoroacetyl-1-piperazinyl)-4-oxo-1,4-dihydroquinoline-3-carboxylic acid] | 50 (≈ 116 µM) | 1.56 (≈ 3.61 µM) | – | – | 25 (≈ 57.9 µM) | 0.78 (≈ 1.81 µM) | 0.78 (≈ 1.81 µM) | 0.78 (≈ 1.81 µM) | 0.78 (≈ 1.81 µM) | 0.78 (≈ 1.81 µM) | – | – | – | 3.13 (≈ 7.25 µM) | – | – | – | – | – | –
CCn1cc(C(=O)O)c(=O)c2cc(Cl)c(N3CCN(C)CC3)cc21 [Example 9, 1-ethyl-6-chloro-7-(4-methyl-1-piperazinyl)-4-oxo-1,4-dihydro-quinoline-3-carboxylic acid] | 50 (≈ 143 µM) | 1.56 (≈ 4.46 µM) | – | 1.56 (≈ 4.46 µM) | 25 (≈ 71.5 µM) | 0.78 (≈ 2.23 µM) | – | 0.78 (≈ 2.23 µM) | 0.78 (≈ 2.23 µM) | 0.78 (≈ 2.23 µM) | – | – | – | – | – | – | < 0.2 | – | – | –
CCOC(=O)c1cn(CC)c2cc(N3CCNCC3)c(F)cc2c1=O [Example 17, 1-ethyl-6-fluoro-7-(1-piperazinyl)-4-oxo-1,4-dihydroquinoline-3-carboxylicacid ethyl ester] | > 100 | 50 (≈ 144 µM) | 100 (≈ 288 µM) | 12.5 (≈ 36 µM) | 50 (≈ 144 µM) | 50 (≈ 144 µM) | 6.25 (≈ 18 µM) | 25 (≈ 72 µM) | 12.5 (≈ 36 µM) | 6.25 (≈ 18 µM) | – | – | – | – | – | – | – | – | – | –
CCn1cc(C(=O)O)c(=O)c2cc(F)c(N3CCN(C(C)=O)CC3)cc21 [Example 29, 1-ethyl-6-fluoro-1,4-dihydro-4-oxo-7-(4-acetyl-1-piperazinyl)quinoline-3-carboxylic acid] | 25 (≈ 69.2 µM) | 0.78 (≈ 2.16 µM) | 1.56 (≈ 4.32 µM) | 1.56 (≈ 4.32 µM) | 25 (≈ 69.2 µM) | 0.2 (≈ 0.553 µM) | < 0.1 | 1.56 (≈ 4.32 µM) | 0.39 (≈ 1.08 µM) | 1.56 (≈ 4.32 µM) | – | – | – | – | – | – | – | – | – | –
